One assay deals with SK-OV-3. The experiment in a line: Antiproliferative activity against human SKOV3 cells incubated for 48 hrs by CCK8 assay. It counts as functional, cell-based. The settings on record: SK-OV-3, 48 h. A general note: Tetrazolium assays rely on reduction of a dye to a coloured formazan, in cell work by metabolically active cells.
Another assay concerns MRC5. Nature of the assay: Cytotoxicity against human MRC5 cells incubated for 48 hrs by CCK8 assay. It counts as cell-based. The settings on record: MRC5, 48 h.
Assay [1] has as its target T1, DNA topoisomerase 1 (Homo sapiens) (UniProt P11387).
T1 sequence (whole entry): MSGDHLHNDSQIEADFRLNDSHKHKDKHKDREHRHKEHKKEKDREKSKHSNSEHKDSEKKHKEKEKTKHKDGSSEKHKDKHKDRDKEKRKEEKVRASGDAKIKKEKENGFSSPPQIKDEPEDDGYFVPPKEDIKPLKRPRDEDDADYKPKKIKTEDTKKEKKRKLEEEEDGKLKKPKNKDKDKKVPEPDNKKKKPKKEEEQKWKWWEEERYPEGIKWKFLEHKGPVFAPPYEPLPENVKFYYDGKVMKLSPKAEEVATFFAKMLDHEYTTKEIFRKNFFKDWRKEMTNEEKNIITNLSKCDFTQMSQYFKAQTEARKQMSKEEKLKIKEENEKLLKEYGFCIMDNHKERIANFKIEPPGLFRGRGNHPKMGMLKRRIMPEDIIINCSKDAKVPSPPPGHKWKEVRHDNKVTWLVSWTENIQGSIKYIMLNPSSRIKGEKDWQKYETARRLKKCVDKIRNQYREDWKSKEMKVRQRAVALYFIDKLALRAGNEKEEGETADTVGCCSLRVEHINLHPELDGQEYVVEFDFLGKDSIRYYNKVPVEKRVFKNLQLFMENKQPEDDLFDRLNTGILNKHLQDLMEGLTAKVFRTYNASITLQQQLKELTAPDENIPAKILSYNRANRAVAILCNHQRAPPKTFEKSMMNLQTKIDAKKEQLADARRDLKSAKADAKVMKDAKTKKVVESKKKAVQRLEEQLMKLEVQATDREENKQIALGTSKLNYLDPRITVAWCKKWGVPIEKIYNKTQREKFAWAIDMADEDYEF
The experiment in a line: Inhibition of recombinant human Top1 expressed in Saccharomyces cerevisiae null strain RS190 assessed as decrease in relaxation of supercoiled plasmid DNA at 100 uM using supercoiled plasmid DNA as substrate incubated for 15 sec by red staining based DNA relaxation assay relative to camptothecin.

The target in assay [2] is T1, DNA topoisomerase 1 (Homo sapiens). The experiment in a line: Inhibition of recombinant human Top1 expressed in Saccharomyces cerevisiae null strain RS190 assessed as decrease in relaxation of supercoiled plasmid DNA at 100 uM using supercoiled plasmid DNA as substrate incubated for 1 min by red staining based DNA relaxation assay relative to camptothecin.
Assay [3] shares this target. Nature of the assay: Inhibition of recombinant human Top1 expressed in Saccharomyces cerevisiae null strain RS190 assessed as decrease in relaxation of supercoiled plasmid DNA at 100 uM using supercoiled plasmid DNA as substrate incubated for 3 min by red staining based DNA relaxation assay relative to camptothecin.
A further assay relates to A549. Nature of the assay: Antiproliferative activity against human A549 cells incubated for 48 hrs by CCK8 assay. It counts as functional, cell-based. The settings on record: A549, 48 h.

For the molecule `O=c1oc2ccccc2c2nc3ccc(Br)nc3c(-c3ccccc3)c12`, the IC50 was greater than 50 µM with SK-OV-3, greater than 50 µM in the assay on MRC5 and 29 µM with A549. For the same molecule, the inhibition in assay [1], in assay [2] and in assay [3] was 4% each time.

For `COc1ccc(-c2c3c(nc4cccnc24)-c2ccccc2OC3)cc1`, the IC50 is greater than 50 µM in the assay with SK-OV-3, greater than 50 µM in the assay on MRC5 and 17.9 µM with A549. The values for the inhibition in assay [1], in assay [2] and in assay [3] were 29%, 30% and 29%, respectively.

As for `O=C1Oc2ccccc2[C@H]2Nc3ccc(Br)nc3[C@@H](c3ccccc3)[C@H]12` (relative stereo), the IC50 in the assay with SK-OV-3, in the assay on MRC5 and in the assay with A549 was greater than 50 µM throughout. Also, the inhibition in assay [1], in assay [2] and in assay [3] was 4% each time.

As for `Fc1ccc(-c2c3c(nc4cccnc24)-c2ccccc2OC3)cc1F`, the IC50 in the assay with SK-OV-3, in the assay with MRC5 and with A549 was greater than 50 µM in each case. Moreover, the inhibition was determined as 84% in assay [1], 6% in assay [2] and 6% in assay [3].

With `c1ccc([C@@H]2c3ncccc3N[C@@H]3c4ccccc4OC[C@@H]23)cc1` (relative stereo), the figures for the 50% inhibitory concentration (IC50) with SK-OV-3, in the assay with MRC5 and in the assay on A549 were 1.75 µM, greater than 50 µM and 1.03 µM, respectively. The inhibition was 5% in assay [1], 4% in assay [2] and 1% in assay [3].

On to `COc1ccc2nc3c(c(-c4ccccc4)c2n1)c(=O)oc1ccccc13`, for which the half-maximal inhibitory concentration (IC50) with SK-OV-3, in the assay with MRC5 and with A549 was greater than 50 µM each time. Also, the inhibition stood at 72% in assay [1], 12% in assay [2] and 12% in assay [3].

Take `Brc1ccc2nc3c(c(-c4ccccc4)c2n1)COc1ccccc1-3`: the 50% inhibitory concentration (IC50) in the assay on SK-OV-3, in the assay on MRC5 and in the assay on A549 was greater than 50 µM throughout. Besides, the inhibition in assay [1], in assay [2] and in assay [3] was 4% throughout.

`Cc1ccc2c(c1)-c1nc3cccnc3c(-c3ccccc3)c1CO2`: the IC50 in the assay with SK-OV-3, in the assay with MRC5 and in the assay with A549 was greater than 50 µM each time. Besides, the inhibition in assay [1], in assay [2] and in assay [3] was 2% in each case.

For `O=C1Oc2ccccc2[C@H]2Nc3cccnc3[C@@H](c3ccccc3)[C@H]12` (relative stereo), the IC50 in the assay with SK-OV-3 was greater than 50 µM; in the assay on MRC5, greater than 50 µM; with A549, 25.4 µM. In addition, the values for the inhibition in assay [1], in assay [2] and in assay [3] were 5%, 7% and 5%, respectively.

`Cc1ccc2c(c1)[C@H]1Nc3cccnc3[C@@H](c3ccccc3)[C@@H]1CO2` (relative stereo): the results for the half-inhibitory concentration (IC50) with SK-OV-3, with MRC5 and in the assay on A549 were 12.7 µM, greater than 50 µM and 7.25 µM, respectively. Moreover, the figures for the inhibition in assay [1], in assay [2] and in assay [3] were 70%, 69% and 19%, respectively.

On to `O=c1oc2ccccc2c2nc3cccnc3c(-c3ccccc3)c12`, for which the IC50 in the assay on SK-OV-3 is greater than 50 µM; with MRC5, greater than 50 µM; with A549, 9.03 µM. Further, the inhibition is 25% in assay [1], 2% in assay [2] and 2% in assay [3].

`O=c1oc2ccc(F)cc2c2nc3cccnc3c(-c3ccccc3)c12`: the IC50 in the assay on SK-OV-3, with MRC5 and with A549 was greater than 50 µM each time. Moreover, the values for the inhibition in assay [1], in assay [2] and in assay [3] were 26%, 2% and 2%, respectively.

As to `Fc1ccc2c(c1)-c1nc3cccnc3c(-c3ccccc3)c1CO2`, the IC50 in the assay with SK-OV-3, with MRC5 and with A549 was greater than 50 µM in each case. The inhibition in assay [1], in assay [2] and in assay [3] was 2% each time.

Consider `COc1ccc2c(n1)[C@@H](c1ccccc1)[C@@H]1C(=O)Oc3ccccc3[C@H]1N2` (relative stereo), for which the IC50 with SK-OV-3, with MRC5 and in the assay with A549 was greater than 50 µM in each case. The inhibition in assay [1], in assay [2] and in assay [3] was 4% in each case.

Consider `COc1ccc2c(n1)[C@@H](c1ccccc1)[C@@H]1COc3ccccc3[C@H]1N2` (relative stereo), for which the values for the concentration for half-maximal inhibition (IC50) in the assay with SK-OV-3, in the assay with MRC5 and in the assay on A549 were greater than 50 µM, greater than 50 µM and 5.43 µM, respectively. Besides, the inhibition stood at 81% in assay [1], 26% in assay [2] and 12% in assay [3].

Take `O=C1Oc2ccc(F)cc2[C@H]2Nc3cccnc3[C@@H](c3ccccc3)[C@H]12` (relative stereo): the IC50 in the assay on SK-OV-3, in the assay on MRC5 and with A549 was greater than 50 µM each time. Further, the values for the inhibition in assay [1], in assay [2] and in assay [3] were 30%, 25% and 2%, respectively.

As to `Fc1ccc2c(c1)[C@H]1Nc3cccnc3[C@@H](c3ccccc3)[C@@H]1CO2` (relative stereo), the IC50 in the assay on SK-OV-3 is greater than 50 µM; in the assay with MRC5, greater than 50 µM; in the assay with A549, 11.3 µM. Also, the inhibition stood at 2% in assay [1], 1% in assay [2] and 1% in assay [3].

Take `c1ccc(-c2c3c(nc4cccnc24)-c2ccccc2OC3)cc1`: the IC50 in the assay with SK-OV-3, in the assay on MRC5 and in the assay with A549 was greater than 50 µM throughout. Moreover, the inhibition in assay [1] was found to be 30%; in assay [2], 14%; in assay [3], 2%.

`COc1ccc2nc3c(c(-c4ccccc4)c2n1)COc1ccccc1-3`: the IC50 in the assay with SK-OV-3 was greater than 50 µM; in the assay on MRC5, greater than 50 µM; in the assay with A549, 11.7 µM. In addition, the inhibition in assay [1] is 86%; in assay [2], 16%; in assay [3], 15%.

What is called IC50 is the concentration at which inhibition is half-maximal. Lower therefore signals greater potency. As usually defined, the inhibition is the share of the control response that was lost under treatment.

The values above are taken from ChEMBL document CHEMBL4359829, “Straightforward synthesis and biological evaluation as topoisomerase I inhibitors and antiproliferative agents of hybrid Chromeno[4,3-b][1,5]Naphthyridines and Chromeno[4,3-b][1,5]Naphthyridin-6-ones” (Eur J Med Chem, 2019).
